Literature values in patent US4983400A, “Controlled release combination of carbidopa/levodopa” (priority 1989, dated 1991).

Columns and labels:
[1] = in vivo

effect of high protein meals on plasma levodopa levels (human, in vivo, iv): without affecting plasma levodopa levels
SMILES: N[C@@H](Cc1ccc(O)c(O)c1)C(=O)O [levodopa]
motor oscillations (intravenous): reduces motor oscillations
effect of high protein meals on response (intravenous, high protein meals): decline in response
residual symptoms at optimal response (intravenous, some patients): either tremor and bradykinesia or mobility with dyskinesia
adverse reactions [1]: severe adverse reactions, especially emesis, were experienced
